Data taken from patent US8637499B2, “Benzoxazepines as inhibitors of PI3K/mTOR and methods of their use and manufacture” (Exelixis, Inc., priority 2009, dated 2014).
pIC50: −log10 of the molar value.

Experiments:
mTORC1 (mTOR/GbL/Raptor) = mTORC1 (mTOR/GbL/Raptor) (Homo sapiens, UniProt P42345); test: mTOR/GbL/Raptor (mTORC1) ELISA Assay; format: biochemical; settings: 0.2 nM mTORC1, 10 μM ATP, 50 nM NHis-tagged 4E-BP1; phosphorylation of 4E-BP1; read-out: IC50
Outline: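 mTORC1 (0.2 nM) phosphorylated NHis-tagged 4E-BP1 (50 nM) with 10 μM ATP in 20 mM Hepes pH 7.2, 10 mM MnCl2, for 120 min at ambient temperature. Product was captured on Ni-chelate plates and detected with anti-phospho-4E-BP1 plus HRP secondary antibody by chemiluminescence.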

PI3Kα = PI3Kα (Homo sapiens, UniProt P42336); test: PI3K Biochemical Assays (ATP consumption, luciferase-luciferin chemiluminescence); settings: PI3Kα 1.5 nM, ATP 1 μM, PIP2 10 μM; percent of ATP consumed
Outline: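 Kinase activity read as percent ATP consumed via luciferase-luciferin chemiluminescence. 1.5 nM enzyme, 1 μM ATP, 10 μM PIP2 in 50 mM Tris pH 7.5, 1 mM EGTA, 10 mM MgCl2, 1 mM DTT, 0.03% CHAPS; ~2 h at ambient temperature, ATP consumption kept to 40-60%.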

Chain of PI3Kα (P42336 whole entry): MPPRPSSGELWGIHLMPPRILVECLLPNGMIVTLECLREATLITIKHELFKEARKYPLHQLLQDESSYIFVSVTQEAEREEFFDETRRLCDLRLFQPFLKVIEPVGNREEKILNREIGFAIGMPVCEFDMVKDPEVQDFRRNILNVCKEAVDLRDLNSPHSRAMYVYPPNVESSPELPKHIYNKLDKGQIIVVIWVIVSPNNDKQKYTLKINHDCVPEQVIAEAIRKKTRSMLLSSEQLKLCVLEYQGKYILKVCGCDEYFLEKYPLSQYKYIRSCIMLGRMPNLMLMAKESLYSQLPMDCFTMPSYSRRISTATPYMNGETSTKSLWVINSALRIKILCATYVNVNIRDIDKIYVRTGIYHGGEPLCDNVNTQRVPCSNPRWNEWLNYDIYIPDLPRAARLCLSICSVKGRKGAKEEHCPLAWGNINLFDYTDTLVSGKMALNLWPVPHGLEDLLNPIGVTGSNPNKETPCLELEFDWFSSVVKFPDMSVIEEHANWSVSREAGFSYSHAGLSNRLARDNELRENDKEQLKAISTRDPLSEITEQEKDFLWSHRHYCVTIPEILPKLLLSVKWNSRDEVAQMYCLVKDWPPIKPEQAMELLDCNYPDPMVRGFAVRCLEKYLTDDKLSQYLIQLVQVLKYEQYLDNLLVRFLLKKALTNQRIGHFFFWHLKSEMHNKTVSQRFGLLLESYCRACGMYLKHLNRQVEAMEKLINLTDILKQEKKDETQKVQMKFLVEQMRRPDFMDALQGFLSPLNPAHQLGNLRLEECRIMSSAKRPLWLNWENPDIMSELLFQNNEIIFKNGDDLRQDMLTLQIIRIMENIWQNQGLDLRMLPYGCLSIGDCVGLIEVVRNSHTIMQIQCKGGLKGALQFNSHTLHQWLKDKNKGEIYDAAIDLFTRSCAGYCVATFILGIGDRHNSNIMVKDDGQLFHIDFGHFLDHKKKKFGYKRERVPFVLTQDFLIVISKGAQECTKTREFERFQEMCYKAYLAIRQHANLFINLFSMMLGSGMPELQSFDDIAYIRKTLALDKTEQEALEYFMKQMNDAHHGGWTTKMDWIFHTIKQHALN
Chain of PI3Kα (P27986 whole entry partner): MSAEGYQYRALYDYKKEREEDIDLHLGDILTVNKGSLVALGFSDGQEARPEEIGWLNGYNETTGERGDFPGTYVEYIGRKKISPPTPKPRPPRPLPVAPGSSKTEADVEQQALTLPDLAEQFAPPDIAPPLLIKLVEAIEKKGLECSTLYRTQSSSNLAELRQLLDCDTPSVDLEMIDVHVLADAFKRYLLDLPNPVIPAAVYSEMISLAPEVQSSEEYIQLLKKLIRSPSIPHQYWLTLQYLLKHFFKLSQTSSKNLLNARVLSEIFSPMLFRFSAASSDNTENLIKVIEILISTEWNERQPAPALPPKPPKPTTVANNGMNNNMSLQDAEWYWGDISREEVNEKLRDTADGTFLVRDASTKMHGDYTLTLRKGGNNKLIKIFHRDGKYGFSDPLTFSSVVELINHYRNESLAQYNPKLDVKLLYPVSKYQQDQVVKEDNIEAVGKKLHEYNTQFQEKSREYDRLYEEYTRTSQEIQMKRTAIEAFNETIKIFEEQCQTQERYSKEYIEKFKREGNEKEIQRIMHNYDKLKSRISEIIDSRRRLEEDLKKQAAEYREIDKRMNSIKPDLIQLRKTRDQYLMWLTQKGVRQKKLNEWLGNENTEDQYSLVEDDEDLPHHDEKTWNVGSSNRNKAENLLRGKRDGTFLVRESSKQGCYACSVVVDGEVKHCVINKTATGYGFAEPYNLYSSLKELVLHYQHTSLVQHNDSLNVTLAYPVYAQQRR

Row | Structure (SMILES) | pIC50 (mTORC1 (mTOR/GbL/Raptor)) | pIC50 (PI3Kα)
1 | CCOC(=O)C1CCCCN1C(=O)N1CCOc2ccc(-c3ccc4nc(C)[nH]c4c3)cc2C1 (stereo not shown) [Compound 75, ethyl 1-{[7-(2-methyl-1H-benzimidazol-6-yl)-2,3-dihydro-1,4-benzoxazepin-4(5H)-yl]carbonyl}piperidine-2-carboxylate] | 5.59 to 6.15 | 5.52 to 6.00
2 | Cc1nc2ccc(-c3ccc4c(c3)CN(C(=O)N3CCN(c5ncccn5)CC3)CCO4)cc2[nH]1 [Compound 166, 7-(2-methyl-1H-benzimidazol-6-yl)-4-[(4-pyrimidin-2-ylpiperazin-1-yl)carbonyl]-2,3,4,5-tetrahydro-1,4-benzoxazepine] | 5.59 to 6.15 | 6.30 to 6.70
3 | Cc1nc2ccc(-c3ccc4c(c3)CN(C(=O)N3CCCC(c5ccccc5)C3)CCO4)cc2[nH]1 (stereo not shown) [Compound 97, 7-(2-methyl-1H-benzimidazol-6-yl)-4-[(3-phenylpiperidin-1-yl)carbonyl]-2,3,4,5-tetrahydro-1,4-benzoxazepine] | 6.15 to 6.60 | 6.00 to 6.30
4 | Cc1nc2cc(-c3ccc4c(c3)CN(C(=O)N3CC[C@](C)(O)C[C@@H]3c3ccccc3)CCO4)ccc2[nH]1 (racemic) [Compound 134, (±)-(2R,4S)-4-methyl-1-{[7-(2-methyl-1H-benzimidazol-5-yl)-2,3-dihydro-1,4-benzoxazepin-4(5H)-yl]carbonyl}-2-phenylpiperidin-4-ol] | 5.59 to 6.15 | 5.52 to 6.00
5 | Cc1nc2ccc(-c3ccc4c(c3)CN(C(=O)N3CCN(c5cnccn5)CC3)CCO4)cc2[nH]1 [Compound 161, 7-(2-methyl-1H-benzimidazol-6-yl)-4-[(4-pyrazin-2-ylpiperazin-1-yl)carbonyl]-2,3,4,5-tetrahydro-1,4-benzoxazepine] | 6.15 to 6.60 | 6.30 to 6.70
6 | Cc1nc2ccc(-c3ccc4c(c3)CN(C(=O)N3CCC(F)(F)CC3)CCO4)cc2[nH]1 [Compound 67, 4-[(4,4-difluoropiperidin-1-yl)carbonyl]-7-(2-methyl-1H-benzimidazol-6-yl)-2,3,4,5-tetrahydro-1,4-benzoxazepine] | 6.15 to 6.60 | 5.52 to 6.00
7 | Cc1nc2ccc(-c3ccc4c(c3)CN(C(=O)N3CCC(S(C)(=O)=O)CC3)CCO4)cc2[nH]1 [Compound 102, 7-(2-methyl-1H-benzimidazol-6-yl)-4-{[4-(methylsulfonyl)piperidin-1-yl]carbonyl}-2,3,4,5-tetrahydro-1,4-benzoxazepine] | 6.60 to 7.30 | 6.00 to 6.30
8 | Cc1nc2ccc(-c3ccc4c(c3)CN(C(=O)N3CCCCC3c3cccc(C(F)(F)F)c3)CCO4)cc2[nH]1 (stereo not shown) [Compound 127, 7-(2-methyl-1H-benzimidazol-6-yl)-4-({2-[3-(trifluoromethyl)phenyl]piperidin-1-yl}carbonyl)-2,3,4,5-tetrahydro-1,4-benzoxazepine] | 6.15 to 6.60 | 6.30 to 6.70
9 | Cc1nc2ccc(-c3ccc4c(c3)CN(C(=O)N3CC[C@H](O)C[C@@H]3c3ccc(F)cc3)CCO4)cc2[nH]1 (racemic) [Compound 136, (±)-(2R,4S)-2-(4-fluorophenyl)-1-{[7-(2-methyl-1H-benzimidazol-6-yl)-2,3-dihydro-1,4-benzoxazepin-4(5H)-yl]carbonyl}piperidin-4-ol] | 6.60 to 7.30 | 6.00 to 6.30
10 | Cc1nc2cc(-c3ccc4c(c3)CN(C(=O)N3C[C@H]5CC(C)C[C@H]5C3)CCO4)ccc2[nH]1 (stereo partly drawn) [Compound 90, 7-(2-methyl-1H-benzimidazol-5-yl)-4-{[(3aR,6aS)-5-methylhexahydrocyclopenta[c]pyrrol-2(1H)-yl]carbonyl}-2,3,4,5-tetrahydro-1,4-benzoxazepine] | 6.60 to 7.30 | 6.30 to 6.70
11 | Cc1nc2ccc(-c3ccc4c(c3)CN(C(=O)N3CCCC(O)C3)CCO4)cc2[nH]1 (stereo not shown) [Compound 108, 1-{[7-(2-methyl-1H-benzimidazol-6-yl)-2,3-dihydro-1,4-benzoxazepin-4(5H)-yl]carbonyl}piperidin-3-ol] | 6.15 to 6.60 | 6.00 to 6.30
12 | COC(=O)Nc1nc2ccc(-c3ccc4c(c3)CN(C(=O)N3CCC(O)(c5cccc(C(F)(F)F)c5)CC3)CCO4)cc2[nH]1 [Compound 18, methyl {6-[4-({4-hydroxy-4-[3-(trifluoromethyl)phenyl]piperidin-1-yl}carbonyl)-2,3,4,5-tetrahydro-1,4-benzoxazepin-7-yl]-1H-benzimidazol-2-yl}carbamate] | 6.60 to 7.30 | ≥ 7.12
13 | CC(=O)Nc1ncc(-c2ccc3c(c2)CN(C(=O)N2CCC(C)CC2)CCO3)s1 [Compound 5, N-(5-{4-[(4-methylpiperidin-1-yl)carbonyl]-2,3,4,5-tetrahydro-1,4-benzoxazepin-7-yl}-1,3-thiazol-2-yl)acetamide] | 6.15 to 6.60 | 5.52 to 6.00
14 | Cc1nc2ccc(-c3ccc4c(c3)CN(C(=O)N3CCCc5ccccc53)CCO4)cc2[nH]1 [Compound 85, 4-(3,4-dihydroquinolin-1(2H)-ylcarbonyl)-7-(2-methyl-1H-benzimidazol-6-yl)-2,3,4,5-tetrahydro-1,4-benzoxazepine] | 6.60 to 7.30 | 5.52 to 6.00

Other lines, results leading:

Row | pIC50 (mTORC1 (mTOR/GbL/Raptor)) | pIC50 (PI3Kα) | Structure (SMILES)
15 | 6.60 to 7.30 | 6.00 to 6.30 | Cc1nc2ccc(-c3ccc4c(c3)CN(C(=O)N3CCC(F)(F)CC3c3ccccc3)CCO4)cc2[nH]1 (stereo not shown) [Compound 138, 4-[(4,4-difluoro-2-phenylpiperidin-1-yl)carbonyl]-7-(2-methyl-1H-benzimidazol-6-yl)-2,3,4,5-tetrahydro-1,4-benzoxazepine]
16 | ≥ 7.30 | ≥ 7.12 | N#CC1CCN(C(=O)N2CCOc3ccc(-c4cnc5nc(N)[nH]c5c4)cc3C2)CC1 [Compound 46, 1-{[7-(2-amino-1H-imidazo[4,5-b]pyridin-6-yl)-2,3-dihydro-1,4-benzoxazepin-4(5H)-yl]carbonyl}piperidine-4-carbonitrile]
17 | 6.60 to 7.30 | 6.30 to 6.70 | Cc1nc2ccc(-c3ccc4c(c3)CN(C(=O)N3CC[C@H](O)C[C@@H]3c3ccc(F)c(F)c3)CCO4)cc2[nH]1 (racemic) [Compound 140, (±)-(2R,4S)-2-(3,4-difluorophenyl)-1-{[7-(2-methyl-1H-benzimidazol-6-yl)-2,3-dihydro-1,4-benzoxazepin-4(5H)-yl]carbonyl}piperidin-4-ol]
18 | 6.60 to 7.30 | ≥ 7.12 | COC(=O)Nc1nc2ccc(-c3ccc4c(c3)CN(C(=O)N3CCC(=O)CC3c3cccc(F)c3)CCO4)cc2[nH]1 (stereo not shown) [Compound 11, methyl [6-(4-{[2-(3-fluorophenyl)-4-oxopiperidin-1-yl]carbonyl}-2,3,4,5-tetrahydro-1,4-benzoxazepin-7-yl)-1H-benzimidazol-2-yl]carbamate]
19 | ≥ 7.30 | 6.70 to 7.12 | O=C(N1CCC(CF)CC1)N1CCOc2ccc(-c3ccc(-c4ncc[nH]4)cc3)cc2C1 [Compound 58, 4-{[4-(fluoromethyl)piperidin-1-yl]carbonyl}-7-[4-(1H-imidazol-2-yl)phenyl]-2,3,4,5-tetrahydro-1,4-benzoxazepine]
20 | ≥ 7.30 | 6.70 to 7.12 | Cc1nc2ccc(-c3ccc4c(c3)CN(C(=O)N3CCCCC3c3cc(F)cc(Cl)c3)CCO4)cc2[nH]1 (stereo not shown) [Compound 116, 4-{[2-(3-chloro-5-fluorophenyl)piperidin-1-yl]carbonyl}-7-(2-methyl-1H-benzimidazol-6-yl)-2,3,4,5-tetrahydro-1,4-benzoxazepine]
21 | ≥ 7.30 | ≥ 7.12 | Cc1nc2ccc(-c3ccc4c(c3)CN(C(=O)N3CCCCC3c3ccc(F)c(F)c3)CCO4)cc2[nH]1 (stereo not shown) [Compound 114, 4-{[2-(3,4-difluorophenyl)piperidin-1-yl]carbonyl}-7-(2-methyl-1H-benzimidazol-6-yl)-2,3,4,5-tetrahydro-1,4-benzoxazepine]
22 | 6.60 to 7.30 | ≥ 7.12 | COC(=O)Nc1nc2ccc(-c3ccc4c(c3)CN(C(=O)N3CCC(=O)CC3c3ccc(F)c(F)c3)CCO4)cc2[nH]1 (stereo not shown) [Compound 16, methyl [6-(4-{[2-(3,4-difluorophenyl)-4-oxopiperidin-1-yl]carbonyl}-2,3,4,5-tetrahydro-1,4-benzoxazepin-7-yl)-1H-benzimidazol-2-yl]carbamate]
23 | 6.60 to 7.30 | 6.30 to 6.70 | Cc1nc2ccc(-c3ccc4c(c3)CN(C(=O)N3C5CCC3c3ccccc35)CCO4)cc2[nH]1 [Compound 143, 9-{[7-(2-methyl-1H-benzimidazol-6-yl)-2,3-dihydro-1,4-benzoxazepin-4(5H)-yl]carbonyl}-1,2,3,4-tetrahydro-1,4-epiminonaphthalene]
24 | ≥ 7.30 | ≥ 7.12 | CS(=O)(=O)Nc1cc(-c2ccc3c(c2)CN(C(=O)N2C4CCC2CC(O)(C(F)(F)F)C4)CCO3)cnc1Cl (stereo not shown) [Compound 181, N-[2-chloro-5-(4-{[3-hydroxy-3-(trifluoromethyl)-8-azabicyclo[3.2.1]oct-8-yl]carbonyl}-2,3,4,5-tetrahydro-1,4-benzoxazepin-7-yl)pyridin-3-yl]methanesulfonamide]
25 | ≥ 7.30 | ≥ 7.12 | O=C(N1CCC(C(F)(F)F)CC1)N1CCOc2ccc(-c3ccc(-c4ncc[nH]4)cc3)cc2C1 [Compound 7, 7-[4-(1H-imidazol-2-yl)phenyl]-4-{[4-(trifluoromethyl)piperidin-1-yl]carbonyl}-2,3,4,5-tetrahydro-1,4-benzoxazepine]
26 | ≥ 7.30 | 6.70 to 7.12 | Nc1nc2ccc(-c3ccc4c(c3)CN(C(=O)N3CCC(=O)CC3c3cccc(F)c3)CCO4)cc2[nH]1 (stereo not shown) [Compound 28, 1-{[7-(2-amino-1H-benzimidazol-6-yl)-2,3-dihydro-1,4-benzoxazepin-4(5H)-yl]carbonyl}-2-(3-fluorophenyl)piperidin-4-one]
